# From doi:10.1101/2021.07.05.449867v2 (biorxiv, 2021)
# Test system: ZRK
# Test: NAD
# Format: biochemical, Zygosaccharomyces rouxii
# Conditions: 2000 uM NADPH/NADH; enzyme 1 ug/ml; optimal buffer
row,Km,SMILES
1,186 µM,"CC(=O)c1cc(C(F)(F)F)cc(C(F)(F)F)c1 [Aprepitant K-INT, 1-(3,5-bis-trifluoromethyl-phenyl)-ethanone]"
2,346 µM,"COC(=O)CC(=O)Cc1cc(F)c(F)cc1F [Sitagliptin K-INT, 3-oxo-4-(2,4,5-trifluoro-phenyl)-butyric acid methyl ester]"
